Source: PMC7221519, “Synthesis and Evaluation of [^18F]FEtLos and [^18F]AMBF3Los as Novel ^18F-Labelled Losartan Derivatives for Molecular Imaging of Angiotensin II Type 1 Receptors” (Molecules, 2020)
Values joined by “and” are separate entries in the source; they are usually repeats but may differ in a detail not shown here. Equal values may be shown once. Read-outs that look alike come from different tables or passages of the source. Each block holds one compound with its values, some of them ahead of it.

Key:
[1] = set-up: method as in earlier work; conditions: cited from earlier work
[2] = Log D7.4 measurement (octanol/PBS, gamma counting); type: physicochemical; conditions: pH 7.4, n = 3
Protocol: The log D7.4 values were determined according to the literature. Aliquots (2 μL) of [^18F]FEtLos and [^18F]AMBF3Los were added to polypropylene tubes containing 3 mL of octanol and 3 mL of PBS (phosphate-buffered saline). The samples were vortexed for 20 s (2 times) and centrifuged at 600× g for 15 min. Aliquots (0.1 mL) of each layer were counted in a gamma counter to determine the log D7.4 as log (counts in octanol layer/counts in PBS layer).

CHO-AT1R cells = assay: Cell binding (uptake) assay in CHO-AT1R and CHO cells; type: cell-based, Chinese hamster; conditions: 60 min at 4 °C; for AT1R-specific binding to CHO-AT1R cells (blocking with losartan potassium): losartan potassium 100 µM/well
Protocol: The cell binding assays were performed based on previous reports with modifications. […] To saturate the AT1R, the cells of the blocking group were treated with losartan 30 min before adding the radiolabelled compound. At the end of the incubation period, the supernatant was aspirated and cells were washed six times with ice-cold PBS, and further removed with cell scraper and transferred to a gamma counter tube. The cellular activity was counted in a Cobra II gamma counter (Packard). […]
(§1) Supplemental material and methods
1. Binding assays in cells with [18F]FEtLos
CHO-AT1R and CHO cells ([…]) were plated in a 6-well plate overnight and then incubated for one hour at 4 °C with 10 µCi (370 kBq) of [18F]FEtLos per well, in presence or absence […]
(§2) At the end of the incubation period, the supernatant was aspirated and cells were washed six times with ice-cold PBS, and further removed with cell scraper and transferred to a gamma counter tube. The activity in the cells was counted in a Cobra II gamma counter (Packard). […]

renal AT1R [3] = assay: Ex vivo µPET/CT imaging of mouse kidneys 10 min p.i.; type: in vivo, Balb/c Nude mice; conditions: losartan 70 mg/kg
Protocol: The renal AT1R binding specificity of [^18F]FEtLos was also evaluated by an ex vivo µPET/CT imaging of Balb/c Nude mice kidneys 10 min post injection (p.i.) of the tracer. […] These positive results of the ex vivo renal AT1R binding of [^18F]FEtLos might be possible due to the high AT1R density in the kidneys, that allows visualizing specific uptake in spite of the low AT1R binding affinity of [^18F]FEtLos.
Figure S12. Calibration curve for determining the molar activity of [18F]FEtLos. The curve represent the correlation between the area under the curve (AUC), recorded from the analytical HPLC profile at 254 nm, and the amount (nmol) of the product injected onto analytical HPLC.
as §1
1. Binding assays in cells with [18F]FEtLos […]
as §2
The AT1R binding specificity of [18F]FEtLos was evaluated by ex vivo µPET/CT imaging of healthy Balb/c Nude mice kidneys after ten minutes of intravenous injection of [18F]FEtLos with […]
(AT1R blocked). […] The ex vivo µPET/CT imaging was recorded using a FOV (field of view) of 60 mm and 15 min for PET scan, and 35 kV and 400 µA for CT scan.

human AT1R = target: T1, human AT1R (Homo sapiens, UniProt P30556); assay: Competition binding assay in membranes containing human AT1R, [125I]-(Sar1,Ile8)-Angiotensin II as radioligand; conditions: human AT1R membranes from CHO-K1 cells, displacement of [125I]-(Sar1,Ile8)-Angiotensin II, n = 3
T1 construct: purchased Perkin Elmer (Waltham, MA, USA); host or cells: CHO-K1 cells (recombinant membrane preparation)
T1 sequence (P30556 1-359): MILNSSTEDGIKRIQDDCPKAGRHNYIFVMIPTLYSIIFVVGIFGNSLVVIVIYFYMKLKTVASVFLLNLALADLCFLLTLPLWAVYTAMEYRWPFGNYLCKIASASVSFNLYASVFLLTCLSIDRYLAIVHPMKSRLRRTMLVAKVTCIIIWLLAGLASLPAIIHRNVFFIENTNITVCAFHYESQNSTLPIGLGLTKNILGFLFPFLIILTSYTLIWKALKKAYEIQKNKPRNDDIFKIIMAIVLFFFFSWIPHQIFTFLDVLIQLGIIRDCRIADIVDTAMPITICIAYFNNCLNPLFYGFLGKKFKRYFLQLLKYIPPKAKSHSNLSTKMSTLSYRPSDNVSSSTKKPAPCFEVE
Protocol: The assays were performed using membranes expressing the human angiotensin II type 1 receptor from CHO-K1 cells, purchased from Perkin Elmer (Waltham, MA, USA). […] The hot ligand [^125I]-(Sar1,Ile8)-Angiotensin II (81.4 TBq/mmol) was also purchased from Perkin Elmer (USA). The Multiscreen MSFCN6B50 96-well plates were used for this assay. The procedure was based on the recommended assay conditions from Perkin Elmer (Waltham, MA, USA) and procedures previously described for other AT1R ligands [22, 23]. Briefly, the 96-well plate was preincubated for 1–2 h at 4 °C with 200 μL of 0.5% BSA (Bovine Serum Albumin) followed by washing (3 times) with an assay buffer. Next, 150 µL of the membranes, diluted (1:150) in the buffer assay (50 mM Tris-HCl pH 7.4, 5 mM MgCl2) to a final concentration of 0.6 μg/well, were added to the wells followed by the addition of cold (25 µL) and hot ligand (25 µL). The plate was incubated for 60 min at 27 °C under stirring and at the end of the experiment all wells were washed (9 times) with ice-cold wash buffer (50 mM Tris-HCl pH 7.4) using vacuum. Afterwards, membranes were punched out and counted in a Perkin Elmer (Waltham, MA, USA) Wizard2 2480 automatic gamma counter. The Ki values were calculated by a non-linear curve fitting using GraphPad Prism 7.01 Software (San Diego, CA, USA). The experiment was done in triplicate.

[4] = set-up: method as in PMID 27199365; conditions: in vivo, 60 min; cited from earlier work
rat kidney AT1R = target: rat kidney AT1R; set-up: method as in PMID 27199365; conditions: read-out: dissociation constant, KD; cited from earlier work
renal AT1R [5] = assay: Autoradiography of mouse kidneys after 60-min dynamic µPET scan; type: in vivo, NOD.Cg-Prkdc^scidIl2rg^tm1Wjl/SzJ mice; conditions: autoradiography after 60-min dynamic µPET scan, co-injection of losartan potassium
Excerpt: Kidneys harvested from healthy NSG mice (after the biodistribution studies), were rinsed in PBS and frozen in isopentane/dry-ice bath. Ten μm-thick slides of the kidneys were obtained using a cryostat (Leica, Wetzlar, Germany), and thaw-mounted onto Superfrost Plus microscope slides (Fischerbrand from Thermo Fisher Scientific, Toronto, ON, Canada), following general procedures of the lab. Afterwards, kidney slides were exposed to a phosphor screen overnight and imaged on a Typhoon FLA 9500 scanner (GE Healthcare, Chicago, IL, USA).

[6] = Biodistribution at 60 min p.i. in healthy NSG mice; type: in vivo, NOD.Cg-Prkdc^scidIl2rg^tm1Wjl/SzJ mice; conditions: n = 3
Protocol: Experiments involving animals were approved by the Animal Ethics Committee of the University of British Columbia (Protocol number: A16-0128). Immunodeficient NOD.Cg-Prkdc^scidII2rg^tm1Wjl/SzJ (NSG) mice were obtained from an in-house breeding colony at the Animal Resource Centre at BC Cancer Research Facility. Mice were always divided into baseline and AT1R blocked groups to assess the AT1R binding specificity of [^18F]AMBF3Los with the co-injection of the AT1R blocker losartan (18 mg/kg, dissolved in PBS).
(§3) The in vivo AT1R binding specificity of [^18F]AMBF3Los was evaluated in healthy mice by a dynamic PET scan. Healthy NSG mice were injected in the tail vein with 6 ± 1 MBq (170 ± 38 μCi) of [^18F]AMBF3Los and a sixty-minute dynamic PET scans was carried out on a μPET/CT scanner (Inveon, Siemens) following procedures reported previously. Alternatively, [^18F]AMBF3Los was concomitantly injected with the AT1R blocker losartan (18 mg/kg) before the dynamic acquisition. Before and during the acquisition, mice were sedated with a continuous flow of isoflurane anesthesia (2% isoflurane in oxygen). The µPET/CT images were analyzed with PMOD v3.3 software (PMOD Technologies, Zürich, Switzerland). An elliptical volume-of-interest that enclosed the entire kidney was positioned manually on the PET images for the determination of the kidney volume. Then, 3-dimensional isocontours were drawn automatically. For each VOI, the percentage of the injected dose in the region of interest, divided by the injected dose per animal weight (% ID/g) could be calculated directly using the output parameters from the μPET.
After the sixty-minute dynamic PET scans, anesthetized mice were euthanized by carbon dioxide asphyxiation and blood, fat, testis, intestines, stomach, spleen, liver, pancreas, adrenal glands, kidneys, lungs, heart, muscle, bone and brain were harvested, rinsed in PBS, weighted and counted in a Perkin Elmer (Waltham, MA, USA) Wizard2 2480 automatic gamma counter to quantify the percent of injected dose per gram of tissue (% ID/g).

renal AT1R [7] = assay: Dynamic µPET scan of healthy NSG mice; type: in vivo, NOD.Cg-Prkdc^scidIl2rg^tm1Wjl/SzJ mice; conditions: early time points (10, 15 and 20 min), losartan 18 mg/kg
Protocol: as §3

[8] = AT1R Blocking (co-injection of losartan 18 mg/kg)

SMILES: CCCCc1nc(Cl)c(CO)n1Cc1ccc(-c2ccccc2-c2nn[nH]n2)cc1 [Losartan potassium, 2-butyl-4-chloro-5-hydroxymethyl-1-[(2′-(1H-tetrazol-5-yl)biphenyl-4-yl)methyl]-1H-imidazole]
log D7.4 [1]: 1.7

SMILES: CCCCc1nc(Cl)c(COCC[18F])n1Cc1ccc(-c2ccccc2-c2nnn[nH]2)cc1 [[^18F]FEtLos, [^18F]fluoroethyl-losartan]
logD ([2]; pH 7.4, octanol/PBS): 0.21 ± 0.09 | AT1R-specific binding to CHO-AT1R cells (blocking with losartan potassium) (CHO-AT1R cells): did not show any specific AT1R binding | AT1R-specific binding to CHO-AT1R cells (blocking with losartan potassium) (CHO-AT1R cells; listed as [18F]FEtLos): non-significant blocking effect | kidney uptake in ex vivo µPET/CT, baseline versus co-injected losartan potassium (renal AT1R [3]): high uptake in the kidneys (baseline), which was blocked

SMILES: CCCCc1nc(Cl)c(COCCF)n1Cc1ccc(-c2ccccc2-c2nnn[nH]2)cc1 [FEtLos, 2-butyl-4-chloro-5-(2-fluoroethoxy)methyl-1-[(2′-(1H-tetrazol-5-yl)biphenyl-4-yl)methyl]-1H-imidazole]
Ki (human AT1R): 2200 ± 200 nM

SMILES: CCCCc1nc(Cl)c(Cn2cc(CCCOc3cccnc3[18F])nn2)n1Cc1ccc(-c2ccccc2-c2nnn[nH]2)cc1 [[^18F]FPyKYNE-losartan]
liver uptake [4]: 66.7 % ID/g | Kd (rat kidney AT1R): 49.4 nM

Second part, led by results:

Ki (human AT1R): 7.9 nM
SMILES: CCCCc1nc(Cl)c(Cn2cc(C[N+](C)(C)C[B-](F)(F)F)nn2)n1Cc1ccc(-c2ccccc2-c2nnn[nH]2)cc1 [AMBF3Los, 2-butyl-4-chloro-5-[((1H-1,2,3-triazol-4-yl)-(N,N-dimethyl-ammoniomethyl-trifluoroborate)methyl)methyl]-1-[(2′-(1H-tetrazol-5-yl)biphenyl-4-yl)methyl]-1H-imidazole]

log D7.4 [2]: −0.43 ± 0.02 and −0.4 | Uptake, Adrenal glands [6, 8]: 0.11 ± 0.06 % ID/g | Uptake, Blood [6, 8]: 0.08 ± 0.08 % ID/g | Uptake, Bone [6, 8]: 0.11 ± 0.03 % ID/g | Uptake, Brain [6, 8]: 0.005 ± 0.004 % ID/g | Uptake, Fat [6, 8]: 0.008 ± 0.002 % ID/g | Uptake, Heart [6, 8]: 0.04 ± 0.03 % ID/g | Uptake, Intestines [6, 8]: 62 ± 3 % ID/g | Uptake, Kidneys [6, 8]: 1.9 ± 1.3 % ID/g | Uptake, Liver [6, 8]: 0.6 ± 0.3 % ID/g | Uptake, Lungs [6, 8]: 0.08 ± 0.04 % ID/g | Uptake, Muscle [6, 8]: 0.05 ± 0.04 % ID/g | Uptake, Pancreas [6, 8]: 0.07 ± 0.06 % ID/g | Uptake, Spleen [6, 8]: 0.08 ± 0.03 % ID/g | Uptake, Stomach [6, 8]: 2 ± 2 % ID/g | Uptake, Testis [6, 8]: 0.029 ± 0.008 % ID/g | Uptake, Adrenal glands ([6]; Baseline): 0.1 ± 0.1 % ID/g | Uptake, Blood ([6]; Baseline): 0.05 ± 0.03 % ID/g | Uptake, Bone ([6]; Baseline): 0.11 ± 0.06 % ID/g | Uptake, Brain ([6]; Baseline): 0.006 ± 0.005 % ID/g | Uptake, Fat ([6]; Baseline): 0.011 ± 0.004 % ID/g | Uptake, Heart ([6]; Baseline): 0.03 ± 0.01 % ID/g | Uptake, Intestines ([6]; Baseline): 63 ± 9 % ID/g | Uptake, Kidneys ([6]; Baseline): 3.5 ± 1.2 % ID/g | Uptake, Liver ([6]; Baseline): 0.5 ± 0.5 % ID/g | Uptake, Lungs ([6]; Baseline): 0.06 ± 0.03 % ID/g | Uptake, Muscle ([6]; Baseline): 0.02 ± 0.01 % ID/g | Uptake, Pancreas ([6]; Baseline): 0.05 ± 0.03 % ID/g | Uptake, Spleen ([6]; Baseline): 0.2 ± 0.1 % ID/g | Uptake, Stomach ([6]; Baseline): 0.06 ± 0.05 % ID/g | Uptake, Testis ([6]; Baseline): 0.03 ± 0.01 % ID/g
SMILES: CCCCc1nc(Cl)c(Cn2cc(C[N+](C)(C)C[B-](F)(F)[18F])nn2)n1Cc1ccc(-c2ccccc2-c2nnn[nH]2)cc1 [[^18F]AMBF3Los, [^18F]ammoniomethyltrifluoroborate-losartan]
renal cortex activity, times smaller in mouse blocked with losartan potassium versus unblocked (renal AT1R [5]): approximately 5 times | in vitro cellular uptake in CHO-AT1R cells compared to CHO cells (CHO-AT1R cells; 10 µCi per well): higher uptake | AT1R-specific binding to CHO-AT1R cells (blocking with losartan potassium) (CHO-AT1R cells): receptor-specific | renal cortex uptake in dynamic µPET with co-injected losartan potassium versus baseline (renal AT1R [7]): reduced
